Experimental data from patent publication US20260265238A1, “COMPOUNDS AND PHARMACEUTICAL COMPOSITIONS THAT DEGRADE SWI/SNF-RELATED MATRIX-ASSOCIATED ACTIN-DEPENDENT REGULATOR OF CHROMATIN SUBFAMILY A” (Plexium, Inc., priority 2023, published 2026).

Assays:
[1] = target: T1, SMARCA4-HiBiT HeLa cells (protein which is expressed from the SMARCA4 gene) (Homo sapiens, UniProt P51532); experiment: SMARCA4 degradation assay (HiBiT-fusion HeLa cell line, 24 h, luminescence); type: cell-based
T1 construct: protein which is expressed from the SMARCA2 and SMARCA4 genes; host or cells: HeLa (SMARCA4-HiBiT engineered line)
T1 sequence (P51532 whole entry, the tested form may be a part): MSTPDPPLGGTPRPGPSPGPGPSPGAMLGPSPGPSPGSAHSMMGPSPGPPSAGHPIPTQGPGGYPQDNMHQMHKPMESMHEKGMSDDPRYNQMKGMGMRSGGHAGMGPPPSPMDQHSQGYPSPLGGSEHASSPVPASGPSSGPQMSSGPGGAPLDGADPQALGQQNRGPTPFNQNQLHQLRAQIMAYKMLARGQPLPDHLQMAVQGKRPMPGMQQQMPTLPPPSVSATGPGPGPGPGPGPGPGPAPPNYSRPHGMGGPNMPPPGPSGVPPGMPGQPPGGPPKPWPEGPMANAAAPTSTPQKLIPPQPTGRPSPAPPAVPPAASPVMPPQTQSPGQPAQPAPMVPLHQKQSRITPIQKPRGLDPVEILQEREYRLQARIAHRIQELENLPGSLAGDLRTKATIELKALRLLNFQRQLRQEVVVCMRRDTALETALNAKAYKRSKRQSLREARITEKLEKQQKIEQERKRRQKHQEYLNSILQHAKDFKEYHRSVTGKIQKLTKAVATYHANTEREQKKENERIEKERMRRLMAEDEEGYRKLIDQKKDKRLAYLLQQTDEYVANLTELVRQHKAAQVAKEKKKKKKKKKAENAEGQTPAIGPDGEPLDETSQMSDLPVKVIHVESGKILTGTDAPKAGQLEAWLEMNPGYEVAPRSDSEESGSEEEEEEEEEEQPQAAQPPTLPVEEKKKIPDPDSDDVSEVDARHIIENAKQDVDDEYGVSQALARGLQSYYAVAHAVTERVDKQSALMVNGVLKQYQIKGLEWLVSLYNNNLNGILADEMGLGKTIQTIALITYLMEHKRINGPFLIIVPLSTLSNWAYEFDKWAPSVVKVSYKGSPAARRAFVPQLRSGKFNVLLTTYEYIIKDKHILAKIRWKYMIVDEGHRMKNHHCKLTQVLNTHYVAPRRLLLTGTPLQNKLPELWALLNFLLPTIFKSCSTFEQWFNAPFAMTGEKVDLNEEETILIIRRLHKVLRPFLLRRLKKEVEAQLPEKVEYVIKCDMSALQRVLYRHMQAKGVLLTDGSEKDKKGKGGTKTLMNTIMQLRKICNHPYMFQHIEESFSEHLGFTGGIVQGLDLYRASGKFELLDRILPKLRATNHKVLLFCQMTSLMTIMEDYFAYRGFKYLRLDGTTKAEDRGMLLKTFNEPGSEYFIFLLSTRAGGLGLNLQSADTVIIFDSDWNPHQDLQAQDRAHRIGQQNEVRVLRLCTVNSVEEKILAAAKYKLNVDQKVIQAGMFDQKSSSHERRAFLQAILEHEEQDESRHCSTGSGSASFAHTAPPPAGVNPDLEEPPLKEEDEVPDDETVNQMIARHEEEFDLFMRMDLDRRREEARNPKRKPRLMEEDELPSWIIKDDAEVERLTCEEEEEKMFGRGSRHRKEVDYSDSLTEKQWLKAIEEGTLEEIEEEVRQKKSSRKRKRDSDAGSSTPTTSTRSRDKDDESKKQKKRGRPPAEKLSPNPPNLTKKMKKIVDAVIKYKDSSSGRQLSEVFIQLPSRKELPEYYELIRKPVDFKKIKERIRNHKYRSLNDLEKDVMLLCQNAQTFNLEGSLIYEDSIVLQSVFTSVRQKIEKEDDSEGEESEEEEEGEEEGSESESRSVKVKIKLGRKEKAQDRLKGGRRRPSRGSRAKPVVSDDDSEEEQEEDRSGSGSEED
Outline: (§1)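 SMARCA2- or SMARCA4-HiBiT HeLa cells seeded overnight at 37° C, then given compound as a 10-point dilution (typically 10 μM to 300 pM) for 24 h at 37° C. Protein level read by HiBiT lytic detection luminescence; DC50 from dose-response curves; degradation also scored at 1 μM.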

[2] = target: T2, SMARCA2-HiBiT HeLa cells (protein which is expressed from the SMARCA2 gene) (Homo sapiens, UniProt P51531); experiment: SMARCA2 degradation assay (HiBiT-fusion HeLa cell line, 24 h, luminescence); type: cell-based
T2 construct: protein which is expressed from the SMARCA2 and SMARCA4 genes; host or cells: HeLa (SMARCA2-HiBiT engineered line)
T2 sequence (P51531 whole entry, the tested form may be a part): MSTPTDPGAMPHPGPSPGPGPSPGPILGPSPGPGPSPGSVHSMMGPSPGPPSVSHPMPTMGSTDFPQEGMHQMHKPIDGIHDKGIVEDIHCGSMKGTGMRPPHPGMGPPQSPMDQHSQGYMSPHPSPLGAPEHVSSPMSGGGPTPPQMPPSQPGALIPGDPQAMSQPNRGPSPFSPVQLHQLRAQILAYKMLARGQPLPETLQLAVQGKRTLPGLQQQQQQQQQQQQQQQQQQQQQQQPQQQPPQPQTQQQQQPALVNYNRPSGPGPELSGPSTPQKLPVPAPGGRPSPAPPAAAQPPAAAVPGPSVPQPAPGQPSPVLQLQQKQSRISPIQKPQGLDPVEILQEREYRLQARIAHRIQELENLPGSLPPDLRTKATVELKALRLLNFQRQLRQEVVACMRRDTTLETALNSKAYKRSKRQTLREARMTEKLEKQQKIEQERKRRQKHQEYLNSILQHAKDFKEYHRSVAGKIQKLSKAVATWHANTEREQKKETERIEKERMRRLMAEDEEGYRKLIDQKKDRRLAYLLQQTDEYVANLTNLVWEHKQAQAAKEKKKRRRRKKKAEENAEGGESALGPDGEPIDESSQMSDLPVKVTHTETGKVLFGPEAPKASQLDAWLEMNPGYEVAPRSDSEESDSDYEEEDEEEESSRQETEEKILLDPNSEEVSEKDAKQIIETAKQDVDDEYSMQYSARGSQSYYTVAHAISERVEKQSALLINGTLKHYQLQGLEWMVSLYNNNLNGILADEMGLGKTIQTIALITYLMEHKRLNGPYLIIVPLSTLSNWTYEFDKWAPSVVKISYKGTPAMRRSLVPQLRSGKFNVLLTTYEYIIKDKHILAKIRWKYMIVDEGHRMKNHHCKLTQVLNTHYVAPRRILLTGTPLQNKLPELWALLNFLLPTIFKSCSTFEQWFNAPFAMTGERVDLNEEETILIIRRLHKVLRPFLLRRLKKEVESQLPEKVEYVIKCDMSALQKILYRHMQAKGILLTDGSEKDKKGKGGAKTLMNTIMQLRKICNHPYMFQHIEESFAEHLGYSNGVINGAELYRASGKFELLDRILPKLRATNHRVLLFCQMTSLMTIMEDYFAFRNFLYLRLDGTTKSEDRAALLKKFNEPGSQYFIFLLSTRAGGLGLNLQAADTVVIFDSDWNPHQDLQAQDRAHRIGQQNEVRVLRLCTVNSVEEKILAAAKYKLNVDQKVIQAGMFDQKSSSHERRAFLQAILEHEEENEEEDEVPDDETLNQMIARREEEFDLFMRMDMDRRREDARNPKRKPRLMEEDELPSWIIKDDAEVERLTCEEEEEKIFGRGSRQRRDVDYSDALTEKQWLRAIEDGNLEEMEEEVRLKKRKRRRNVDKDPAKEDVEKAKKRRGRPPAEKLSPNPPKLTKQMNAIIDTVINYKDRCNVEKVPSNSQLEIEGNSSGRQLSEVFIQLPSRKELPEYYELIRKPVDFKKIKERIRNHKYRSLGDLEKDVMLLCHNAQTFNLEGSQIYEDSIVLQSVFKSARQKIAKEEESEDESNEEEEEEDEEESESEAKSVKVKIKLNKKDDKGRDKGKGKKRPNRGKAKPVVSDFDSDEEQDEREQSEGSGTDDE
Outline: as §1

Compound	DC50 [1] [nM]	inhibition at 1 µM [1] [%]	DC50 [2] [nM]	SMARCA2 % Degradation @ 1 μM [2]
Nc1nnc(-c2ccccc2O)cc1N1CCC2(CCCN(c3ccnc(C#CCO)n3)C2)CC1 [Compound P-123, 2-(6-amino-5-(2-(2-(3-hydroxyprop-1-yn-1-yl)pyrimidin-4-yl)-2,9-diazaspiro[5.5]undecan-9-yl)pyridazin-3-yl)phenol]	< 50	30 to 70	50 to 500	++ (++=30-70%)
CCOc1cc(N2CCCN(c3cc(-c4ccccc4O)nnc3N)CC2)nc(C#CCNC(=O)c2cc3ncccn3n2)n1 [Compound P-124, N-(3-(4-(4-(3-amino-6-(2-hydroxyphenyl)pyridazin-4-yl)-1,4-diazepan-1-yl)-6-ethoxypyrimidin-2-yl)prop-2-yn-1-yl)pyrazolo[1,5-a]pyrimidine-2-carboxamide]	50 to 500	> 70	50 to 500	++ (++=30-70%)
Nc1nnc(-c2ccccc2O)cc1N1CCCN(c2ccnc(C#CCO)n2)CC1 [Compound P-125, 2-(6-amino-5-(4-(2-(3-hydroxyprop-1-yn-1-yl)pyrimidin-4-yl)-1,4-diazepan-1-yl)pyridazin-3-yl)phenol]	50 to 500	30 to 70	50 to 500	++ (++=30-70%)
COCc1cc(N2CCCN(c3cc(-c4ccccc4O)nnc3N)CC2)nc(C#CCNC(=O)c2nn(C)c(C)c2C)n1 [Compound P-126, N-(3-(4-(4-(3-amino-6-(2-hydroxyphenyl)pyridazin-4-yl)-1,4-diazepan-1-yl)-6-(methoxymethyl)pyrimidin-2-yl)prop-2-yn-1-yl)-1,4,5-trimethyl-1H-pyrazole-3-carboxamide]	50 to 500	30 to 70	50 to 500	++ (++=30-70%)
COCc1cc(N2CCCN(c3cc(-c4ccccc4O)nnc3N)CC2)nc(C#CCNC(=O)c2cc3ncccn3n2)n1 [Compound P-127, N-(3-(4-(4-(3-amino-6-(2-hydroxyphenyl)pyridazin-4-yl)-1,4-diazcpan-1-yl)-6-(methoxymethyl)pyrimidin-2-yl)prop-2-yn-1-yl)pyrazolo[1,5-a]pyrimidine-2-carboxamide]	50 to 500	> 70	50 to 500	++ (++=30-70%)
Nc1nnc(-c2ccccc2O)cc1N1CCCN(c2ccnc(C#CCOc3ncco3)n2)CC1 [Compound P-128, 2-(6-amino-5-(4-(2-(3-(oxazol-2-yloxy)prop-1-yn-1-yl)pyrimidin-4-yl)-1,4-diazepan-1-yl)pyridazin-3-yl)phenol]	50 to 500	30 to 70	< 50	+++ (+++=>70%)
Nc1nnc(-c2ccccc2O)cc1N1CCC2(CCCN(c3ccnc(C#CCNC(=O)c4cc5n(n4)CCC5)n3)C2)CC1 [Compound P-129, N-(3-(4-(9-(3-amino-6-(2-hydroxyphenyl)pyridazin-4-yl)-2,9-diazaspiro[5.5]undecan-2-yl)pyrimidin-2-yl)prop-2-yn-1-yl)-5,6-dihydro-4H-pyrrolo[1,2-b]pyrazole-2-carboxamide]	50 to 500	30 to 70	50 to 500	++ (++=30-70%)
Cn1ccc(NCC#Cc2nccc(N3CC4CCC(C3)N4c3cc(-c4ccccc4O)nnc3N)n2)n1 [Compound P-130, 2-(6-amino-5-(3-(2-(3-((1-methyl-1H-pyrazol-3-yl)amino)prop-1-yn-1-yl)pyrimidin-4-yl)-3,8-diazabicyclo[3.2.1]octan-8-yl)pyridazin-3-yl)phenol]	50 to 500	30 to 70	50 to 500	+++ (+++=>70%)
Cn1nccc1OCC#Cc1nccc(N2CCCN(c3cc(-c4ccccc4O)nnc3N)CC2)n1 [Compound P-131, 2-(6-amino-5-(4-(2-(3-((1-methyl-1H-pyrazol-5-yl)oxy)prop-1-yn-1-yl)pyrimidin-4-yl)-1,4-diazepan-1-yl)pyridazin-3-yl)phenol]	50 to 500	30 to 70	50 to 500	++ (++=30-70%)
Nc1nnc(-c2ccccc2O)cc1N1CC2CCC(C1)N2c1ccnc(C#CCn2nnc3ccccc32)n1 [Compound P-132, 2-(5-(8-(2-(3-(1H-benzo[d][1,2,3]triazol-1-yl)prop-1-yn-1-yl)pyrimidin-4-yl)-3,8-diazabicyclo| 3.2.1 |octan-3-yl)-6-aminopyridazin-3-yl)phenol]	500 to 5000	30 to 70	500 to 5000	++ (++=30-70%)
Nc1nnc(-c2ccccc2O)cc1N1CC2CCC(C1)N2c1ccnc(C#CCn2cccn2)n1 [Compound P-133, 2-(5-(8-(2-(3-(1H-pyrazol-1-yl)prop-1-yn-1-yl)pyrimidin-4-yl)-3,8-diazabicyclo[3.2.1]octan-3-yl)-6-aminopyridazin-3-yl)phenol]	50 to 500	30 to 70	50 to 500	++ (++=30-70%)
CN(C)CC#Cc1nccc(N2C3CCC2CN(c2cc(-c4ccccc4O)nnc2N)C3)n1 [Compound P-134, 2-(6-amino-5-(8-(2-(3-(dimethylamino)prop-1-yn-1-yl)pyrimidin-4-yl)-3,8-diazabicyclo[3.2.1]octan-3-yl)pyridazin-3-yl)phenol]	< 50	30 to 70	50 to 500	++ (++=30-70%)
Nc1nnc(-c2ccccc2O)cc1N1CCCN(c2ccnc(C#Cc3cnc4cnccn34)n2)CC1 [Compound P-135, 2-(6-amino-5-(4-(2-(imidazo[1,2-a]pyrazin-3-ylethynyl)pyrimidin-4-yl)-1,4-diazepan-1-yl)pyridazin-3-yl)phenol]	50 to 500	30 to 70	50 to 500	++ (++=30-70%)
Nc1nnc(-c2ccccc2O)cc1N1CCCN(c2ccnc(C#CCN3CCOCC3)n2)CC1 [Compound P-136, 2-(6-amino-5-(4-(2-(3-morpholinoprop-1-yn-1-yl)pyrimidin-4-yl)-1,4-diazepan-1-yl)pyridazin-3-yl)phenol]	50 to 500	30 to 70	50 to 500	++ (++=30-70%)
Nc1nnc(-c2ccccc2O)cc1N1CCCN(c2ccnc(C#CCN3CCS(=O)(=O)CC3)n2)CC1 [Compound P-137, 4-(3-(4-(4-(3-amino-6-(2-hydroxyphenyl)pyridazin-4-yl)-1,4-diazepan-1-yl)pyrimidin-2-yl)prop-2-yn-1-yl)thiomorpholine 1,1-dioxide]	500 to 5000	30 to 70	500 to 5000	++ (++=30-70%)
Nc1nnc(-c2ccccc2O)cc1N1CCCN(c2ccnc(C#CCn3ccc(-c4ccccn4)n3)n2)CC1 [Compound P-138, 2-(6-amino-5-(4-(2-(3-(3-(pyridin-2-yl)-1H-pyrazol-1-yl)prop-1-yn-1-yl)pyrimidin-4-yl)-1,4-diazepan-1-yl)pyridazin-3-yl)phenol]	50 to 500	30 to 70	50 to 500	+++ (+++=>70%)
